Results reported in patent US5785963A, “Polymeric hydantoin quaternary compounds, methods of making” (Lonza, Inc., priority 1996, dated 1998).

Tested on: bovine corneas
Assay: BCOP (Bovine Corneal Opacity and Permeability) assay of ocular irritancy
Procedure: A BCOP (Bovine Corneal Opacity and Permeability) assay was carried out on polyhydantoin quat compounds of the invention using a test system developed by Gautheron et al.L, "Bovine Corneal Opacity and Permeability Test: An in Vitro Assay of Ocular Irritancy" Fundamental and Applied Toxicology, 18: 442-449 (1992). The system measures two important properties which are predictive of irritation: corneal opacity and permeability. The following classification system for in vitro scores was used:
from 25.1 to 55=moderate irritant
from 55.1 and above=severe irritant
Two polyhydantoin quaternary compounds, having formulas IV and V, were tested using known antimicrobial compositions, ethanol and a didecyl dimethyl ammonium chloride (Bardac 2250, Lonza Inc., Fair Lawn, N.J.), as controls. The test samples were prepared as 0.1% active solutions in distilled water.
In this test, bovine corneas (from slaughterhouse animals) were mounted between two tissue culture media reservoirs in holders which function both as treatment chambers and as cuvettes for subsequent direct measurement of corneal opacity. […]
After completion of the incubation period, the resultant damage was assessed both by quantitative measurement of opacity change, and by indirect measurement of corneal cell damage as evidenced by increased passage of fluorescein.

CCO [Ethanol, ethanol]
BCOP SCORE: 68.7
